Reference: the CheMixHub viscosity set
± gives the uncertainty stated by the source.

Test: xn = mol fraction of the nth substance listed

Cc1cccc(Cl)c1 + Nc1cccc(Cl)c1
viscosity [mPa·s], 100 kPa
Conditions | x2 = 0.0705 | x2 = 0.1546 | x2 = 0.2565 | x2 = 0.3413 | x2 = 0.4391 | x2 = 0.5101 | x2 = 0.6494 | x2 = 0.7592 | x2 = 0.8887
303.15 K | 0.9978 ± 0.051 | 1.301 ± 0.051 | 1.665 ± 0.051 | 1.967 ± 0.052 | 2.313 ± 0.052 | 2.563 ± 0.053 | 3.05 ± 0.054 | 3.431 ± 0.055 | 3.876 ± 0.056
308.15 K | 0.9306 ± 0.05 | 1.202 ± 0.051 | 1.529 ± 0.051 | 1.8 ± 0.051 | 2.11 ± 0.052 | 2.333 ± 0.053 | 2.769 ± 0.054 | 3.109 ± 0.055 | 3.505 ± 0.056
313.15 K | 0.8678 ± 0.05 | 1.109 ± 0.051 | 1.398 ± 0.051 | 1.636 ± 0.051 | 1.909 ± 0.052 | 2.106 ± 0.052 | 2.489 ± 0.053 | 2.788 ± 0.054 | 3.137 ± 0.055
318.15 K | 0.8037 ± 0.05 | 1.014 ± 0.051 | 1.265 ± 0.051 | 1.473 ± 0.051 | 1.71 ± 0.052 | 1.88 ± 0.052 | 2.212 ± 0.053 | 2.471 ± 0.053 | 2.771 ± 0.055

CNC(C)=O + O=C1CCCO1
viscosity [mPa·s], 101 kPa
Conditions | x1 = 0.0549 | x1 = 0.1816 | x1 = 0.2715 | x1 = 0.3602 | x1 = 0.4477 | x1 = 0.5352 | x1 = 0.6411 | x1 = 0.7239 | x1 = 0.9033
303.15 K | 1.516 ± 0.11 | 1.586 ± 0.11 | 1.642 ± 0.12 | 1.719 ± 0.12 | 1.82 ± 0.13 | 1.99 ± 0.14 | 2.215 ± 0.15 | 2.45 ± 0.17 | 3.147 ± 0.21
308.15 K | 1.408 ± 0.1 | 1.452 ± 0.1 | 1.51 ± 0.11 | 1.572 ± 0.11 | 1.662 ± 0.12 | 1.78 ± 0.12 | 1.979 ± 0.14 | 2.178 ± 0.15 | 2.799 ± 0.19
313.15 K | 1.338 ± 0.096 | 1.343 ± 0.096 | 1.393 ± 0.099 | 1.447 ± 0.1 | 1.521 ± 0.11 | 1.626 ± 0.11 | 1.805 ± 0.13 | 1.967 ± 0.14 | 2.515 ± 0.17
318.15 K | 1.213 ± 0.088 | 1.247 ± 0.09 | 1.281 ± 0.092 | 1.334 ± 0.096 | 1.403 ± 0.1 | 1.514 ± 0.11 | 1.665 ± 0.12 | 1.8 ± 0.13 | 2.226 ± 0.15

C[C@@H](O)[C@H](N)C(=O)[O-].[Na+] + O
viscosity [mPa·s], 101 kPa
Conditions | x1 = 0.004484 | x1 = 0.008927 | x1 = 0.01333 | x1 = 0.0177 | x1 = 0.02202 | x1 = 0.02631 | x1 = 0.03478 | x1 = 0.0431 | x1 = 0.05127
293.15 K | 1.122 ± 0.011 | 1.27 ± 0.012 | 1.439 ± 0.013 | 1.636 ± 0.013 | 1.856 ± 0.015 | 2.096 ± 0.016 | 2.659 ± 0.019 | 3.317 ± 0.024 | 4.073 ± 0.029
303.15 K | 0.9 ± 0.011 | 1.012 ± 0.011 | 1.138 ± 0.011 | 1.279 ± 0.012 | 1.425 ± 0.013 | 1.594 ± 0.014 | 1.993 ± 0.016 | 2.414 ± 0.019 | 2.986 ± 0.022
313.15 K | 0.734 ± 0.01 | 0.821 ± 0.01 | 0.914 ± 0.011 | 1.024 ± 0.011 | 1.132 ± 0.012 | 1.258 ± 0.012 | 1.55 ± 0.014 | 1.858 ± 0.015 | 2.25 ± 0.018
323.15 K | 0.612 ± 0.01 | 0.681 ± 0.01 | 0.755 ± 0.01 | 0.84 ± 0.01 | 0.925 ± 0.011 | 1.021 ± 0.011 | 1.242 ± 0.012 | 1.482 ± 0.013 | 1.767 ± 0.015

CNC(C)=O + CCCCO
303.15 K, 101 kPa
Conditions | viscosity [mPa·s]
x1 = 0.0988 | 2.32 ± 0.061
x1 = 0.2013 | 2.369 ± 0.063
x1 = 0.2993 | 2.428 ± 0.064
x1 = 0.3951 | 2.525 ± 0.067
x1 = 0.4945 | 2.651 ± 0.07
x1 = 0.5957 | 2.82 ± 0.075
x1 = 0.6947 | 3.015 ± 0.08
x1 = 0.8011 | 3.259 ± 0.086
x1 = 0.8918 | 3.503 ± 0.093

CC(C)CCO + NC=O
298.1 K, 101 kPa
Conditions | viscosity [mPa·s]
x2 = 0.0932 | 3.579 ± 0.0046
x2 = 0.1809 | 3.571 ± 0.004
x2 = 0.2579 | 3.687 ± 0.0034
x2 = 0.3292 | 3.799 ± 0.0028
x2 = 0.4564 | 3.993 ± 0.0017
x2 = 0.5661 | 4.174 ± 0.0009
x2 = 0.6617 | 4.273 ± 0.0013
x2 = 0.7463 | 4.252 ± 0.0024
x2 = 0.8205 | 4.071 ± 0.0035
x2 = 0.8871 | 3.8 ± 0.0047
x2 = 0.9462 | 3.567 ± 0.0059

CC(CC(C)(C)C)CP(=O)(O)CC(C)CC(C)(C)C (stereo not given) + ClC(Cl)(Cl)Cl
298.15 K, 101 kPa
Conditions | viscosity [mPa·s]
x1 = 0.0063 | 0.961 ± 0.011
x1 = 0.0131 | 1.04 ± 0.012
x1 = 0.0159 | 1.076 ± 0.012
x2 = 0.1192 | 98.3 ± 1.5
x2 = 0.201 | 83.19 ± 1.1
x2 = 0.3155 | 66.36 ± 0.79
x2 = 0.5037 | 36.06 ± 0.41
x2 = 0.6763 | 19.27 ± 0.21
x2 = 0.7689 | 12.88 ± 0.14
x2 = 0.7808 | 11.73 ± 0.13
x2 = 0.8099 | 9.498 ± 0.11
x2 = 0.86 | 5.932 ± 0.067
x2 = 0.8741 | 4.951 ± 0.056
x2 = 0.9286 | 2.263 ± 0.026
x2 = 0.9325 | 2.124 ± 0.024
x2 = 0.9717 | 1.255 ± 0.014

CCOCCO + CCO
298.15 K, 101 kPa
Conditions | viscosity [mPa·s]
x1 = 0.0538 | 1.147 ± 0.0099
x1 = 0.1133 | 1.207 ± 0.011
x1 = 0.1798 | 1.272 ± 0.013
x1 = 0.2542 | 1.341 ± 0.016
x1 = 0.3383 | 1.416 ± 0.019
x1 = 0.4341 | 1.497 ± 0.022
x1 = 0.544 | 1.581 ± 0.027
x1 = 0.6716 | 1.669 ± 0.032
x1 = 0.8215 | 1.761 ± 0.039

CC(CC(C)(C)C)CP(=O)(O)CC(C)CC(C)(C)C (stereo not given) + ClC(Cl)Cl
298.15 K, 101 kPa
Conditions | viscosity [mPa·s]
x1 = 0.0053 | 0.568 ± 0.007
x1 = 0.0095 | 0.615 ± 0.007
x1 = 0.011 | 0.638 ± 0.008
x2 = 0.1271 | 90.02 ± 1.3
x2 = 0.2117 | 75.09 ± 0.98
x2 = 0.3912 | 50.44 ± 0.56
x2 = 0.5499 | 30.02 ± 0.35
x2 = 0.7028 | 11.91 ± 0.14
x2 = 0.7739 | 6.921 ± 0.081
x2 = 0.8002 | 5.613 ± 0.066
x2 = 0.8091 | 5.202 ± 0.061
x2 = 0.8378 | 3.942 ± 0.046
x2 = 0.8852 | 2.458 ± 0.029
x2 = 0.8924 | 2.301 ± 0.027
x2 = 0.9394 | 1.35 ± 0.016
x2 = 0.9426 | 1.28 ± 0.015
x2 = 0.9762 | 0.818 ± 0.01
